Test results from US6140362A, “Method for inhibiting the growth of mammalian cells” (Rohm and Haas Company, priority 1997, dated 2000).

How the values were obtained:
Leukemia (SR) = experiment: Growth inhibition of human tumor cell lines: Leukemia (SR); type: cell-based; conditions: cell line A = Leukemia (SR), NCI testing
Description: (§1) Selected compounds were evaluated by the National Cancer Institute, Bethesda, Md. against 60 human tumor cell lines according to procedures described in Principles and Practices of Oncology, volume 3, issue number 10, pp. 1-12. Results of the testing against representative cell lines including the test compound number, and the GI50 values (μM) are set forth in Table 3. The GI50 value is the concentration required to inhibit cell growth by 50% as compared to untreated control cultures.

Colon cancer (HCT116) = experiment: Growth inhibition of human tumor cell lines: Colon cancer (HCT116); type: cell-based; conditions: HCT-116, cell line D = Colon cancer (HCT116), NCI testing
Description: as §1

Ovarian cancer (OVCAR8) = experiment: Growth inhibition of human tumor cell lines: Ovarian cancer (OVCAR8); type: cell-based; conditions: OVCAR-8, cell line G = Ovarian cancer (OVCAR8), NCI testing
Description: as §1

CNS cancer (SF539) = experiment: Growth inhibition of human tumor cell lines: CNS cancer (SF539); type: cell-based; conditions: SF-539, cell line E = CNS cancer (SF539), NCI testing
Description: as §1

Renal cancer (CAKI1) = experiment: Growth inhibition of human tumor cell lines: Renal cancer (CAKI1); type: cell-based; conditions: CAKI-1, cell line H = Renal cancer (CAKI1), NCI testing
Description: as §1

[1] = tested on: Nonsmall cell lung cancer (NCIH522); experiment: Growth inhibition of human tumor cell lines: Nonsmall cell lung cancer (NCIH522); type: cell-based; conditions: NCI-H522, cell line B = Nonsmall cell lung cancer (NCIH522), NCI testing
Description: as §1

tubulin [2] = experiment: Effect of preincubation time with tubulin on inhibition of microtubule assembly; type: biochemical, calf; conditions: 16 μM
Description: (§2) Compounds were evaluated for their ability to inhibit tubulin assembly into microtubules by comparing the extent of cold-reversible assembly in the presence of each test compound with controls lacking the test compound. Tubulin was isolated from calf brain tissue by two cycles of assembly/disassembly as described by Vallee, R. B. in Methods in Enzymology, vol. 134, pp. 89-104. Assay mixtures contained 1 mg/ml of purified tubulin in 1 M sodium glutamate, pH 6.6, 1 millimolar (mM) MgCl2, and the test compound, which was added as a solution in DMSO. The final concentration of DMSO in each assay was 2% (v/v). Assay mixtures were preincubated at 37° C. for 1 h, then chilled on ice for 5 min. Microtubule assembly was initiated by addition of guanosine triphosphate (0.1 mM), and incubation at 37° C. Assembly was followed turbidimetrically at 350 nm for 20 minutes (min) using a temperature-controlled cell in a Cary 2200 spectrophotometer. Since microtubules undergo depolymerization at 0° C., assembly was confirmed by measuring the reduction in turbidity following incubation for 30 min at 0° C. The difference in absorbance before and after incubation for 30 min at 0° C. (ΔA350) represents the extent of microtubule assembly. Inhibition of assembly was calculated by subtracting the (ΔA350) values for treatments with test compounds from the (ΔA350) for controls without test compound, and expressing this difference as a percentage of the (ΔA350) value for the control. Results including test compound number, test compound concentration in micromoles per liter (μM) and percent inhibition are set forth in Table 11.
Compound 14 (16 μM) was preincubated with tubulin under the conditions described in Example 4 for 0, 1, 2, 4 and 6 hours before initiating assembly by addition of guanosine triphosphate (0.1 mM), and incubation at 37° C. Inhibition of assembly was determined as in Example 4, and results including preincubation time and percent inhibition of assembly are set forth in Table 12.

[3] = tested on: Small cell lung cancer (DMS 114); experiment: Growth inhibition of human tumor cell lines: Small cell lung cancer (DMS 114); type: cell-based; conditions: cell line C = Small cell lung cancer (DMS 114), NCI testing
Description: as §1

Melanoma (SKMEL-2) = experiment: Growth inhibition of human tumor cell lines: Melanoma (SKMEL-2); type: cell-based; conditions: SK-MEL-2, cell line F = Melanoma (SKMEL-2), NCI testing
Description: as §1

mouse lymphoma cells = experiment: Effect on mitosis in mouse lymphoma cells (visible chromosomes); type: cell-based; conditions: 2 μM, 7 hours
Description: Compound 14 was dissolved in DMSO at 0.8 mM and 75 microliters (μL) of this solution was added to tubes containing 30 ml of cell suspension at 1.2×10^5 /mL grown under the conditions described in Example 1. Cells in control tubes received 75 μL of DMSO alone. Tubes were gassed with 5% CO2, then incubated on a roller drum apparatus for 7 hours. The cells were treated with hypotonic medium (3-fold diluted growth medium) and fixed in acetic acid:methanol (1:3, v/v). After staining with aceto-orcein (method described in L. La Cour, Stain Technology, vol. 16, pp. 169-174 (1941)) the percentage of cells with visible chromosomes in treated and control cells was determined based on examination of 400 cells per sample.

[4] = tested on: mouse lymphoma cell line L5178Y; experiment: Growth inhibition of mouse lymphoma cells (L5178Y), 48 h; type: cell-based; conditions: 48 hours; for inhibition at 2 µM: 2 micromolar; for inhibition at 10 µM: 10 micromolar, read-out: Inhibition of growth
Description: Effects of compounds on growth of mouse lymphoma cell line L5178Y, were determined as follows. Cells were grown in Fischer's medium (obtained from Life Technologies, Inc., Gaithersburg, Md.) containing 0.24 grams per liter (g/l) sodium pyruvate, 1.12 g/l surfactant (Pluronic F-68, from BASF Corporation, Parsippany, N.J.), and 10% by volume (10% v/v) heat-inactivated horse serum (obtained from Life Technologies, Inc) at 37° C. To 30 ml aliquots of cell suspension (2×10^4 cells per milliliter (mL)) in exponential growth phase were added test compounds dissolved in dimethylsulfoxide (DMSO) at various concentrations such that the final DMSO concentration in the mixtures was 0.25%. Tubes were gassed with 5% CO2 then incubated on a roller drum apparatus. After 48 hours the cells were treated with 0.1% trypsin (Life Technologies, Inc.,) for 10 minutes and counted in a Coulter Counter equipped with a 140 micrometer (μM) aperture. Percent inhibition of growth was calculated by comparing the number of cells in assays containing test compound with the number of cells in controls lacking the test compound.

tubulin [5] = experiment: Inhibition of microtubule assembly; type: biochemical, calf; conditions: 50 μM, preincubated 1 h at 37° C.
Description: as §2

[6] = Biological activity of enantiomers; conditions: vs corresponding R enantiomers; test not stated

SMILES	GI50 (Leukemia (SR)) [nM]	GI50 (Colon cancer (HCT116)) [nM]	GI50 (Ovarian cancer (OVCAR8)) [nM]	GI50 (CNS cancer (SF539)) [nM]	GI50 (Renal cancer (CAKI1)) [nM]	GI50 [1] [nM]	Percent inhibition of microtubule assembly (tubulin [2]; preincubation time 0 h) [%]	Percent inhibition of microtubule assembly (tubulin [2]; preincubation time 1 h) [%]	Percent inhibition of microtubule assembly (tubulin [2]; preincubation time 2 h) [%]	Percent inhibition of microtubule assembly (tubulin [2]; preincubation time 4 h) [%]	Percent inhibition of microtubule assembly (tubulin [2]; preincubation time 6 h) [%]	GI50 [3] [nM]	GI50 (Melanoma (SKMEL-2)) [nM]	Normal mitotic figures in treated cells (mouse lymphoma cells; vs control)	Number of cells with visible chromosomes (mouse lymphoma cells; vs control)	Percentage of cells with visible chromosomes (mouse lymphoma cells; control 3.9) [Percentage]	inhibition at 2 µM [4] [%]	Percent inhibition of microtubule assembly (tubulin [5]) [%]	inhibition at 10 µM [4] [%]	Activity of S enantiomer relative to R enantiomer [6]
CCC(C)(NC(=O)c1cc(Cl)cc(Cl)c1)C(=O)CCl (stereo not shown) [Compound 14]	830	2310	2790	2100	3830	1980	0	5.1	22.6	57.6	87.2	720	1940	lacking in the treated cells	produced an increase in the number of cells with visible chromosomes	27.4	95	56.3	–	–
CC(C)(NC(=O)c1cc(Cl)cc(Cl)c1)C(=O)C(Br)Br [Compound 17]	1790	3650	3000	2250	2370	1040	–	–	–	–	–	2090	2710	–	–	–	97	85.9	–	–
CCC(C)(NC(=O)c1cc(C)cc(C#N)c1)C(=O)CCl (stereo not shown) [Compound 23]	650	3280	3430	2550	2810	2050	–	–	–	–	–	2190	2560	–	–	–	–	50.5	95	–
CCC(C)(NC(=O)c1cc(Cl)cc(Cl)c1)C(=O)CSC#N (stereo not shown) [Compound 26]	5690	4850	11900	3450	13300	3770	–	–	–	–	–	3710	12200	–	–	–	–	56.6	67	–
CC(C)(NC(=O)c1cc(Cl)cc(Cl)c1)C(=O)CCl [Compound 28]	3010	14200	12400	9790	12900	2610	–	–	–	–	–	5380	12200	–	–	–	–	22.3	87	–
CCC(C)(NC(=O)c1cncc(Br)c1)C(=O)CCl (stereo not shown) [Compound 44]	330	670	1960	2210	2360	350	–	–	–	–	–	330	410	–	–	–	95	100.0	–	–
CC[C@](C)(NC(=O)c1cc(Cl)cc(Cl)c1)C(=O)CCl [S enantiomer of compound 14]	–	–	–	–	–	–	–	–	–	–	–	–	–	–	–	–	–	–	–	more active
CC[C@](C)(NC(=O)c1cc(Cl)c(C)c(Cl)c1)C(=O)CCl [S enantiomer of compound 32]	–	–	–	–	–	–	–	–	–	–	–	–	–	–	–	–	–	–	–	more active
